# Reference: patent US7351398B2, “Stabilization of radiopharmaceutical compositions using hydrophilic thioethers” (CIS bio international, priority 2000, dated 2008)
# Assays:
# [1] = HPLC RCP of 99mTc-labelled depreotide with hydrophilic thioether additives; assay type: physicochemical; conditions: for 3.5 hr RCP / 6.5 hr RCP / Initial RCP: 99mTc-depreotide kit, additive 4 mg in 100 μL, heated
# Experimental: [drawing 16] These compounds and L-methionine were tested for their ability to stabilize ^99mTc-labelled depreotide. Each hydrophilic thioether was dissolved in water made up at 40 mg/mL and adjusted to pH 7 with HCl or NaOH. Each hydrophilic thioether (4 mg in 100 μL) was added to a formulated kit vial containing the peptide (“control” formulation in Table 1). To the control vials were added 100 μL water.
# [2] = HPLC RCP of 99mTc-labelled depreotide kits with L-methionine after accelerated temperature (40° C.) kit storage; assay type: physicochemical; conditions: lyophilized kits stored at 40° C. prior to radiolabelling
# Experimental: Lyophilized kits were prepared containing depreotide, L-methionine (Met), and other components as described in Table 5. All formulations were adjusted to pH 7.4 prior to lyophilization. The kits were stored for one week at 40° C. Some kits were also stored at −10° C. as controls.
# The lyophilized kits were radiolabelled with ^99mTc by reconstitution with 1.0 mL technetium ^99mTc sodium pertechnetate (Technelite®) containing approximately 50 mCi ^99mTc and incubation in a boiling water bath (10 min).
# [3] = HPLC RCP of 99mTc-labelled monoamine, diamide, single thiol peptide chelator with L-methionine; assay type: physicochemical
# Experimental: L-methionine was tested for its ability to stabilize a ^99mTc-labelled monoamine, diamide, single thiol peptide chelator having the structure.
# Lyophilized kit “placebo” vials were prepared containing sodium glucoheptonate dihydrate, edetate disodium dihydrate, and stannous chloride dihydrate at the concentrations set forth in Table 1 (control formulation).
# The peptide chelator was radiolabelled with ^99mTc in the presence and absence of L-methionine. The peptide chelator was dissolved in water at a concentration of 1 mg/mL, and 50 μg (50 μL) of the peptide was added to each of three placebo vials. Ethanol and L-methionine were added to the control and methionine preparations as described in Example 5. In addition, 100 μL phosphate buffered saline (PBS) was added to each preparation. The vials were reconstituted with 0.9-1.0 mL ^99mTc sodium pertechnetate (Technelite®) containing approximately 50 mCi ^99mTc, and heated in a boiling water bath for ten minutes.
# [4] = HPLC RCP of 99mTc-labelled glycoprotein IIb/IIIa receptor-binding peptide with L-methionine; assay type: physicochemical
# Experimental: L-methionine was tested for its ability to stabilize a ^99mTc-labelled glycoprotein IIb/IIIa receptor-binding peptide having the structure.
# Lyophilized kit vials were prepared containing the peptide (50 μg), sodium glucoheptonate dihydrate (10 mg), stannous chloride dihydrate (50 μg), and edetate disodium dihydrate (100 μg). The formulation was adjusted to pH 7.4 prior to lyophilization.
# The lyophilized kits were radiolabelled with ^99mTc in the presence and absence of L-methionine. To the Met preparation was added 4 mg methionine (in 100 μL saline) and 100 μL ethanol. To the control preparation was added 100 μL ethanol and 100 μL saline to account for the additional saline or ethanol added with the L-methionine. Both vials were then reconstituted with 1.0 mL technetium ^99mTc sodium pertechnetate (Technelite®) containing approximately 50 mCi ^99mTc and allowed to incubate for 30 minutes at room temperature.
# [5] = HPLC RCP of 99mTc-labelled benzodiazepinedione derivative kits with L-methionine; assay type: physicochemical; conditions: formulated kits
# Experimental: L-methionine was tested for its ability to stabilize a ^99mTc-labelled glycoprotein IIb/IIIa receptor-binding benzodiazepinedione derivative 1-[(carboxyglycyl-glycyl-glycyl-cysteinamide)methyl]-4-(2-carboxyethyl)-7-[(4-amidinophenyl)methyl]-3,4-dihydro-1H-1,4-benzodiazepine-2,5-dione trifluoroacetate, having the structure.
# All formulations were adjusted to pH 7.4 prior to lyophilization.
# The lyophilized kits were radiolabelled with ^99mTc by reconstitution with 1.0 mL technetium ^99mTc sodium pertechnetate (Technelite®) containing approximately 50 mCi ^99mTc and heating in a boiling water bath for 10 minutes.
# [6] = HPLC RCP of 99mTc-labelled depreotide kits with L-methionine; conditions: formulated kits stored under normal conditions (≦−10° C.)
# Experimental: Lyophilized kit vials were prepared containing depreotide, L-methionine (Met), and other components as described in Table 3. All formulations were adjusted to pH 7.4 prior to lyophilization.
# The lyophilized kits were radiolabelled with ^99mTc by reconstitution with 1.0 mL technetium ^99mTc sodium pertechnetate (Technelite®) containing approximately 50 mCi ^99mTc and heating in a boiling water bath for 10 minutes. Some of the formulations were also radiolabelled in a room temperature preparation (allowed to stand at room temperature 30 minutes following reconstitution).
# [7] = HPLC RCP of 99mTc-labelled bisamine bisthiol non-peptide chelator with L-methionine; assay type: physicochemical
# Experimental: L-methionine was tested for its ability to stabilize a ^99mTc-labelled non-peptide chelator (4-(butanoic acid)-2,2,9,9 tetramethyl-4,7-diaza-1,10-decanedithiol) having the structure.
# The non-peptide chelator was radiolabelled with ^99mTc in the presence and absence of L-methionine using the placebo vial heated preparation procedure as described in Example 6.
# [8] = Radiochemical purity (RCP) by reversed phase HPLC of 99mTc-labelled depreotide kits with gentisic acid; assay type: physicochemical; conditions: included in formulated kits
# Experimental: Lyophilized kit vials were prepared containing depreotide, GA, and other components as described in Table 1. Formulations were adjusted to pH 7.4 or 8.5 (as noted) prior to lyophilization.
Structure (SMILES),Effect on radiolabelling yield and stability of 99mTc-labelled peptide (depreotide) [1],3.5 hr RCP [1] [%],6.5 hr RCP [1] [%],Initial RCP [1] [%],further results
CCSCCN [2-(Ethylthio)ethylamine],increase,94.2,93.3,92.8,
"CSCCC=O [3-(methylthio)propionaldehyde, reference compound]",no effect,,,,
"CSCC(O)CO (stereo not drawn) [3-Methylthio-1,2-propanediol, 3-methylthio-1,2-propanediol]",increase,84,80.9,89.1,
CSCC[C@H](N)C(=O)O [L-methionine],,90.4,89.3,95,"Stabilization of 99mTc-depreotide [2]: does not stabilize; Effect on radiolabelling yield and stability of 99mTc-labelled peptide chelator [3]: increases; HPLC RCP (%) 0.5 hr ([3]; 99mTc-peptide chelator, 4 mg L-methionine or none, heated, 0.5 hr): 98.4%; HPLC RCP (%) 3 hr ([3]; 99mTc-peptide chelator, 4 mg L-methionine or none, heated, 3 hr): 97.2%; HPLC RCP (%) 6 hr ([3]; 99mTc-peptide chelator, 4 mg L-methionine or none, heated, 6 hr): 95.5%; HPLC RCP (%) 9 hr ([3]; 99mTc-peptide chelator, 4 mg L-methionine or none, heated, 9 hr): 92.8%; Effect on radiolabelling yield and stability of the 99mTc-peptide [4]: increases; HPLC RCP (%) 0.5 hr ([4]; 99mTc-GPIIb/IIIa peptide, 4 mg methionine or none, room temperature 30 min, 0.5 hr): 96.7%; HPLC RCP (%) 3.5 hr ([4]; 99mTc-GPIIb/IIIa peptide, 4 mg methionine or none, room temperature 30 min, 3.5 hr): 96.9%; HPLC RCP (%) 6.5 hr ([4]; 99mTc-GPIIb/IIIa peptide, 4 mg methionine or none, room temperature 30 min, 6.5 hr): 96.2%; Effect on radiolabelling yield and stability of 99mTc-labelled benzodiazepinedione derivative [5]: increases; Effect on radiolabelling yield and stability of 99mTc-depreotide [6]: increases; Effect on radiolabelling yield and stability of 99mTc-labelled non-peptide chelator [7]: increases; HPLC RCP (%) 0.5 hr ([7]; 99mTc-non-peptide chelator, 4 mg methionine or none, heated, 0.5 hr): 66.7%; HPLC RCP (%) 3 hr ([7]; 99mTc-non-peptide chelator, 4 mg methionine or none, heated, 3 hr): 70.0%; HPLC RCP (%) 6 hr ([7]; 99mTc-non-peptide chelator, 4 mg methionine or none, heated, 6 hr): 70.8%; HPLC RCP (%) 9 hr ([7]; 99mTc-non-peptide chelator, 4 mg methionine or none, heated, 9 hr): 70.4%"
"C[S+]([O-])CC[C@H](N)C(=O)O (stereo partly drawn) [Methionine sulfoxide, reference compound]",no effect,,,,
"CSCC[C@H](N)CO [Methioninol, methioninol]",increase,93.9,90.7,94.1,
"O=C(O)c1cc(O)ccc1O [gentisic acid, Gentisic acid]",,,,,Effect on radiolabelling yield and stability of 99mTc-depreotide [8]: decreases
"CS(=O)(=O)CC[C@H](N)C(=O)O [methionine sulfone, reference compound]",no effect,,,,
